Results taken from patent US10308986B2, “Cancer diagnosis, treatment selection and treatment” (CHILDREN'S MEDICAL CENTER CORPORATION, priority 2013, dated 2019).
Read-outs that look alike come from different tables or passages of the source.

Key:
[1] = test system: panel of breast cancer cell lines; test: Colony formation assay, IC50, panel of breast cancer cell lines; format: cell-based; details: for association of pattern of sensitivity across cell line panel with relative expression of BRCA1/BLM and BLM/Actin: panel of breast cancer cell lines
Protocol: Three cell lines (BT549, HCC1143, and HCC38) are normal genotype for BRCA1 and have high BLM/Actin and low ratio of BRCA1/BLM. Two cell lines (MDA231 and MDA453) are also normal genotype for BRCA1 but have relatively higher expression of BRCA1/BLM and lower BLM/actin. HCC1937 and MDA436 have homozygous mutation in BRCA1 and undetectable BRCA1/BLM, and higher expression of BLM/Actin.
A panel of cell lines was evaluated for sensitivity to various treatments as indicated by colony formation assay and calculation of IC50 values.

[2] = test system: BT549 breast cancer cells; test: Colony formation assay, IC50, BT549 cells treated with siRNAs to BLM or FANCI; format: cell-based; details: versus scramble control
Protocol: We further treated BT549 breast cancer cells, with inherent high levels of BLM and FANCI were treated with gene-specific siRNAs to BLM or FANCI or with a scramble control.

[3] = test system: MDA231 breast cancer cells; test: Colony formation assay, IC50 for cisplatin, MDA231 cells with BLM overexpression; format: cell-based
Protocol: These cells were used in experiments to assess the effect of increasing the expression of BLM. A lentivirus expression vector for HA-tagged BLM cDNA or a control vector was transfected into MDA231 cells. BLM expression was assessed by Western blot analysis for endogenous BLM or for the HA-tag in cells treated with control vector, BLM cDNA, BLM cDNA and a small molecule inhibitor of BLM helicase (BLMi), or BLM cDNA and BLM siRNA.
IC50 for cisplatin was determined by colony formation assay in MDA231 breast cancer cells treated with control vector, BLM cDNA vector, BLM cDNA plus the BLM small molecule inhibitor, and BLM cDNA plus BLM siRNA. […] Consistent with the other findings, this effect was reversed by treatment with the BLM helicase inhibitor and by siRNA knockdown of BLM.

H2AX and 53BP1 foci = test: Immunofluorescence assay for markers of DNA damage (H2Ax-p and 53BP1-p) in MDA231 cells; format: cell-based; details: cisplatin after 4 hours, compared with no cisplatin treatment
Protocol: We also performed an immunofluorescence assay for markers of DNA damage (H2Ax-p and 53BP1-p) in MDA231 cells treated with control vector, BLM cDNA, BLM cDNA+BLM inhibitor, or BLM cDNA+BLM siRNA. Overexpression of BLM results in increased H2AX and 53BP1 foci in the absence of any cisplatin treatment indicating spontaneous DNA damage. This effect is even greater in cells treated with cisplatin after 4 hours. The quantitation of foci is shown in the lower bar graphs. The addition of a small molecule BLM helicase inhibitor (Bi) or siRNA to BLM (si) blocks the effect of BLM overexpression on DNA damage foci.

[4] = test system: triple negative breast cancer; details: 28 TNBC patients, neoadjuvant cisplatin as single agent (Silver et al., JCO 2010); cited from earlier work
[5] = test system: triple negative breast cancer; details: TNBC patients, neoadjuvant cisplatin in combination with bevacizumab; 44 patients completed therapy (Ryan et al., JCO 2009); cited from earlier work
[6] = two BRCA1 mutated cell lines (HCC1937, MDA436) and three cell lines with low BRCA1/BLM and high BLM/actin (BT549, HCC1143, HCC38)
[7] = two cell lines with low BLM and high BRCA1/BLM (MDA231, MDA453)

Compound | association of pattern of sensitivity across cell line panel with relative expression of BRCA1/BLM and BLM/Actin [1] | sensitivity by colony formation assay (IC50) [1, 6] | sensitivity by colony formation assay (IC50) [1, 7] | effect of siRNA knockdown of either BLM or FANCI on IC50 [2] | sensitivity of MDA231 cells ([3]; MDA231 cells with low levels of BLM) | effect of overexpression of BLM on IC50 for cisplatin ([3]; MDA231 cells, BLM cDNA vector versus control vector) | H2AX and 53BP1 foci in BLM overexpressing cells (H2AX and 53BP1 foci) | patients who achieved at least 90% reduction in tumor size [4] | patients who achieved at least 90% reduction in tumor size [5]
O=C(c1cc(Cc2n[nH]c(=O)c3ccccc23)ccc1F)N1CCN(C(=O)C2CC2)CC1 [Olaparib] | associated | greater sensitivity | relatively resistant |  |  |  |  |  | 
CC(=O)O[C@H]1C(=O)[C@@]2(C)[C@H]([C@H](OC(=O)c3ccccc3)[C@]3(O)C[C@H](OC(=O)[C@H](O)[C@@H](NC(=O)c4ccccc4)c4ccccc4)C(C)=C1C3(C)C)[C@]1(OC(C)=O)CO[C@@H]1C[C@@H]2O [Paclitaxel] | no apparent association |  |  | no significant effect |  |  |  |  | 
N.N.[Cl][Pt][Cl] [cisplatin, cis-diamminedichloroplatinum] | associated | greater sensitivity | relatively resistant | increased IC50 (greater resistance) | relative resistance | decrease in the IC50 (greater sensitivity) | even greater | 36% | 39%
